The compounds below were run on AGS (assay: Cell proliferation experiment (CellTiter-Glo)). Conditions: AGS, KRAS mutation type G12D; 96 h incubation; read-out: IC50(nM) AGS.
Format: cell-based

In order of rising IC50:
1. (2S,4R)-1-((S)-2-(4-(5-(7-((7-(8-ethyl-7-fluoro-3-hydroxynaphthalen-1-yl)-8-fluoro-4-((R)-3-hy droxy-3-methylpiperidin-1-yl)pyrido[4,3-d]pyrimidin-2-yl)oxy)methyl)cyclopropyl)methyl)-2,7-azaspiro[3.5]nonan-2-yl)pyrazin-2-yl)-1H-1,2,3-triazol-1-yl)-3-methylbutanoyl)-4-hydroxy-N-(( S)-1-(4-methylthiazol-5-yl)phenyl)ethyl)pyrrolidine-2-carboxamide [Compound 168]  5.6 nM
2. CCc1c(F)ccc2cc(O)cc(-c3ncc4c(N5CCC[C@@](C)(O)C5)nc(OCC5(CN6CCN(Cc7cnc(-c8cn([C@H](C(=O)N9C[C@H](O)C[C@H]9C(=O)N[C@@H](C)c9ccc(-c%10scnc%10C)cc9)C(C)C)nn8)s7)CC6)CC5)nc4c3F)c12 [Compound 187]  7.5 nM
3. CCc1c(F)ccc2cc(O)cc(-c3ncc4c(N5CCC[C@@](C)(O)C5)nc(OCC5(CN6CCC(Oc7ccc(-c8cn([C@H](C(=O)N9C[C@H](O)C[C@H]9C(=O)N[C@@H](C)c9ccc(-c%10scnc%10C)cc9)C(C)C)nn8)nn7)CC6)CC5)nc4c3F)c12 [Compound 167]  8.8 nM
4. CCc1c(F)ccc2cc(O)cc(-c3ncc4c(N5CCC[C@@](C)(O)C5)nc(OCC5(CN6CCC(Oc7ncc(-c8cn([C@H](C(=O)N9C[C@H](O)C[C@H]9C(=O)N[C@@H](C)c9ccc(-c%10scnc%10C)cc9)C(C)C)nn8)s7)CC6)CC5)nc4c3F)c12 [Compound 181]  11 nM
5. (2S,4R)-1-((S)-2-(4-(5-((((3R,7aR)-7a-(((7-(8-ethyl-7-fluoro-3-hydroxynaphthalen-1-yl)-8-fluor o-4-((R)-3-hydroxy-3-methylpiperidin-l-yl)pyrido[4,3-d]pyrimidin-2-yl)oxy)methyl)hexahydro-1H-pyrrolizin-3-yl)methoxy)pyrazin-2-yl)-1H-1,2,3-triazol-1-yl)-3-methylbutanoyl)-4-hydroxy-N-((S)-1-(4-(4-methylthiazol-5-yl)phenyl)ethyl)pyrrolidine-2-carboxamide [Compound 188]  12 nM
6. CCc1c(F)ccc2cc(O)cc(-c3ncc4c(N5CCC[C@@](C)(O)C5)nc(OCC5(CN6CCC(Oc7ccc(-c8cn([C@H](C(=O)N9C[C@H](O)C[C@H]9C(=O)N[C@@H](CO)c9ccc(-c%10scnc%10C)cc9)C(C)C)nn8)cn7)CC6)CC5)nc4c3F)c12 [Compound 171]  13 nM
7. (2S,4R)-1-((S)-2-(4-(5-(1-((1-((7-(8-ethyl-7-fluoro-3-hydroxynaphthalen-1-yl)-8-fluoro-4-((R)-3 -hydroxy-3-methylpiperidin-1-yl)pyrido[4,3-d]pyrimidin-2-yl)oxy)methyl)cyclopropyl)methyl)p iperidin-4-yl)oxy)pyrimidin-2-yl)-1H-1,2,3-triazol-1-yl)-3-methylbutanoyl)-4-hydroxy-N-((S)-1-(4-hydroxyl-N-(4-(4-methylthiazol-5-yl)phenyl)ethyl)pyrrolidine-2-carboxamide [Compound 169]  20 nM
8. (2S,4R)-1-((S)-2-(4-(3-((1-((1-((7-(8-ethyl-7-fluoro-3-hydroxynaphthalen-1-yl)-8-fluoro-4-((R)-3-hydroxy-3-methylpiperidin-1-yl)pyrido[4,3-d]pyrimidin-2-yl)oxy)methyl)cyclopropyl)methyl) piperidin-4-yl)methyl)amino)bicyclo[1.1.1]pent-1-yl)-1H-1,3-triazol-1-yl)-3-methylbutanoyl)-4-hydroxy-N-((S)-1-(4-(4-methylthiazol-5-yl)phenyl)ethyl)pyrrolidine-2-carboxamide [Compound 180]  20 nM
9. CCc1c(F)ccc2cc(O)cc(-c3ccc4c(N5CCC[C@@](C)(O)C5)nc(OCC5(CN6CCC7(CC6)CN(c6cnc(-c8cn([C@H](C(=O)N9C[C@H](O)C[C@H]9C(=O)N[C@@H](C)c9ccc(-c%10scnc%10C)cc9)C(C)C)nn8)cn6)C7)CC5)nc4c3F)c12 [Compound 186]  20 nM
10. (2S,4R)-1-((S)-2-(4-(1-((1-((1-(((7-(8-ethyl-7-fluoro-3-hydroxynaphthalen-1-yl)-8-fluoro-4-((R)-3-hydroxy-3-methylpiperidin-1-yl)pyrido[4,3-d]pyrimidin-2-yl)oxy)methyl)piperidin-4-yl)methy l)azetidin-3-yl)-1H-1,2,3-triazol-1-yl)-3-methylbutanoyl)-4-hydroxy-N-((S)-1-(4-(4-methylthiaz ol-5-yl)phenyl)ethyl)pyrrolidine-2-carboxamide [Compound 129]  37 nM
11. CCc1c(F)ccc2cc(O)cc(-c3ncc4c(N5CCC[C@@](C)(O)C5)nc(OCC5(CN6CCN(C7CCN(c8cc([C@H](C(=O)N9C[C@H](O)C[C@H]9C(=O)N[C@H](C)c9ccc(-c%10scnc%10C)cc9)C(C)C)on8)CC7)CC6)CC5)nc4c3F)c12 [Compound 164]  38 nM
12. (3S,7aS)-7a-((7-(7-(8-ethyl-7-fluoro-3-hydroxynaphthalen-1-yl)-8-fluoro-4-((R)-3-hydroxy-3-m ethylpiperidin-1-yl)pyrido[4,3-d]pyrimidin-2-yl)pyrimidin-2-yl)oxy)methyl)-6-methylenehexahy dro-1H-pyrrolizin-3-yl)methyl-4-(((5-(R)-1-(2S,4R)-4-hydroxy-2-(((S)-1-(4-(4-methylthiazol-5-yl)phenyl)ethyl)carbamoyl)pyrrolidin-1-yl)-3-methyl-1-oxobutan-2-yl)isoxazol-3-yl)oxy)methyl )piperidine-1-carboxylate [Compound 125]  52 nM

Same assay, conditions: Homo sapiens, AGS, 96 h, read-out: IC50(nM) AGS

In order of falling IC50:
1. C=C1CN2[C@H](CN3CCC(c4cn([C@H](C(=O)N5C[C@H](O)C[C@H]5C(=O)N[C@@H](C)c5ccc(-c6scnc6C)cc5)C(C)C)nn4)CC3)CC[C@@]2(COc2nc(N3CCC[C@@](C)(O)C3)c3cnc(-c4cc(O)cc5ccc(F)c(CC)c45)c(F)c3n2)C1 [Compound 123]  82 nM
2. CCc1c(F)ccc2cc(O)cc(-c3ncc4c(N5CCC[C@@](C)(O)C5)nc(OCC5(CN6CCN(C7CC(c8cn([C@H](C(=O)N9C[C@H](O)C[C@H]9C(=O)N[C@@H](C)c9ccc(-c%10scnc%10C)cc9)C(C)C)nn8)C7)CC6)CC5)nc4c3F)c12 (stereo partly drawn) [Compound 165, (2S,4R)-1-((S)-2-(4-(3-(4-((1-(((7-(8-ethyl-7-fluoro-3-hydroxynaphthalen-1-yl)-8-fluoro-4-((R)-3-hydroxy-3-methylpiperidin-1-yl)pyrido[4,3-d]pyrimidin-2-yl)oxy)methyl)cyclopropyl)methyl)piperazin-1-yl)cyclobutyl)-1H-1,2,3-triazol-1-yl)-3-methylbutanoyl)-4-hydroxy-N-((S)-1-(4-(4-methylthiazol-5-yl)phenyl)ethyl)pyrrolidine-2-carboxamide]  9.2 nM

Same assay, conditions: read-out: IC50(nM) AGS

In order of rising IC50:
1. CCc1c(F)ccc2cc(O)cc(-c3ncc4c(N5CCC[C@@](C)(O)C5)nc(OCC5(CN6CCC(Oc7cnc(-c8cn([C@H](C(=O)N9C[C@H](O)C[C@H]9C(=O)N[C@@H](CO)c9ccc(-c%10ccnn%10CC)cc9)C(C)C)nn8)cn7)CC6)CC5)nc4c3F)c12 [Compound 172]  3.6 nM
2. (2S,4R)-1-((S)-2-(4-(5-((4-((1-(((7-(8-ethyl-7-fluoro-3-hydroxynaphthalen-1-yl)-8-fluoro-4-((R)-3-hydroxy-3-methylpiperidin-1-yl)pyrido[4,3-d]pyrimidin-2-yl)oxy)methyl)cyclopropyl)methyl) piperazin-1-yl)methyl)piperazin-3-yl)-1H-1,2,3-triazol-1-yl)-3-methylbutanoyl)-4-hydroxy-N-((S )-1-(4-(4-methylthiazol-5-yl)phenyl)ethyl)pyrrolidine-2-carboxamide [Compound 177]  4.2 nM
3. (2S,4R)-1-((S)-2-(4-(1-((1-((1-(((7-(8-ethyl-7-fluoro-3-hydroxynaphthalen-1-yl)-8-fluoro-4-((R)-3-hydroxy-3-methylpiperidin-1-yl)pyrido[4,3-d]pyrimidin-2-yl)oxy)methyl)cyclopropyl)methyl) piperidin-4-yl)methyl)-1H-pyrazol-4-yl)-1H-1,2,3-triazol-1-yl)-3-methylbutanoyl)-4-hydroxy-N-((S)-1-(4-(4-methylthiazol-5-yl)phenyl)ethyl)pyrrolidine-2-carboxamide [Compound 182]  24 nM
4. (2S,4R)-1-((S)-2-(4-(6-((4-((1-(((7-(8-ethyl-7-fluoro-3-hydroxynaphthalen-1-yl)-8-fluoro-4-((R)-3-hydroxy-3-methylpiperidin-1-yl)pyrido[4,3-d]pyrimidin-2-yl)oxy)methyl)cyclopropyl)methyl) pyridin-1-yl)methyl)pyridin-3-yl)-1H-1,2,3-triazol-1-yl)-3-methylbutanoyl)-4-hydroxy-N-((S)-1-(4-(4-methylthiazol-5-yl)phenyl)ethyl)pyrrolidine-2-carboxamide [Compound 179]  27 nM
5. (2S,4R)-1-((S)-2-(4-(6-((1-((1-(((7-(8-ethyl-7-fluoro-3-hydroxynaphthalen-1-yl)-8-fluoro-4-((R)-3-hydroxy-3-methylpiperidin-1-yl)pyrido[4,3-d]pyrimidin-2-yl)oxy)methyl)cyclopropyl)methyl) -4-methylpiperidin-4-yl)oxy)piperidin-3-yl)-1H-1,2,3-triazol-1-yl)-3-methylbutanoyl)-4-hydroxy -N-((S)-1-(4-(4-methylthiazol-5-yl)phenyl)ethyl)pyrrolidine-2-carboxamide [Compound 176]  33 nM
6. C=C1CN2[C@H](COC(=O)N3CCN(c4cc([C@H](C(=O)N5C[C@H](O)C[C@H]5C(=O)N[C@@H](C)c5ccc(-c6scnc6C)cc5)C(C)C)on4)CC3)CC[C@@]2(COc2nc(N3CCC[C@@](C)(O)C3)c3cnc(-c4cc(O)cc5ccc(F)c(CC)c45)c(F)c3n2)C1 [Compound 110]  52 nM
7. C#Cc1c(F)ccc2cc(O)cc(-c3ncc4c(N5CCCOCC5)nc(OC[C@]56CCCN5[C@@H](COC(=O)N5CCC7(CC5)CC(C(=O)N[C@H](C(=O)N5C[C@H](O)C[C@H]5C(=O)N[C@@H](C)c5ccc(-c8scnc8C)cc5)C(C)(C)C)C7)CC6)nc4c3F)c12 [Compound 90]  83 nM

What follows are compounds tested against KRAS G12D (Homo sapiens, UniProt P01116, G12D) (assay: not given). Conditions: not given.
KRAS G12D, sequence (P01116 1-188 isoform P01116-2 G12D): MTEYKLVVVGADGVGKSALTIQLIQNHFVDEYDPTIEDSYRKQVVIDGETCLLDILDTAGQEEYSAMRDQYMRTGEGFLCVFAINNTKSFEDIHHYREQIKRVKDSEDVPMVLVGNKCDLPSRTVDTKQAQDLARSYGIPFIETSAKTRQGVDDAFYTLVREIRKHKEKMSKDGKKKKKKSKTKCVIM

`C=C1CN2[C@H](CN3CCC(c4cn([C@H](C(=O)N5C[C@H](O)C[C@H]5C(=O)N[C@@H](C)c5ccc(-c6scnc6C)cc5)C(C)C)nn4)CC3)CC[C@@]2(COc2nc(N3CCC[C@@](C)(O)C3)c3cnc(-c4cc(O)cc5ccc(F)c(CC)c45)c(F)c3n2)C1` [Compound 123] showed a DC50 of 122 nM.

Source: EP4631940A1, “COMPOUND TARGETING PAN-KRAS PROTEIN DEGRADATION AGENT AND USE THEREOF” (Betta Pharmaceuticals Co., Ltd., priority 2022, dated 2024)
